Like-named read-outs stand apart in the source and are kept apart here.
How the values were obtained:
[1] = tested on: human kidney cancer cells (A-498); assay: MTT tumor cell proliferation inhibition test, A-498; type: cell-based; conditions: read-out: Half Inhibitory Concentration IC50, A-498
Procedure: (§1) The compounds of the present invention were subjected to tumor cell proliferation inhibition test, and conventional MTT method was used.
(§2) Cell lines: human kidney cancer cells (A-498), human lung cancer cells (A-549), human brain astrocytoma cells (U-251). The culture medium was DMEM+15% NBS+double antibody.
(§3) Sample solution preparation: after dissolving with DMSO (Merck), PBS (−) was added to obtain 100 μmol/L solution or homogeneous suspension. The solution was diluted with PBS (−) in DMSO to a final concentration of 0.1, 1, 10, 20, 40, 60, 80, 100 μmol/L.
(§4) Gossypol was used as control solution, prepared under the same condition.
(§5) Cell culture: adherent growth Tumor cells were cultured in 1640 medium containing 10% inactivated neonatal bovine serum and penicillin, streptomycin (1 million U/L), placed in carbon dioxide incubator at 37° C., 5% CO2, and saturated humidity. Cells were treated serially passaged 2-3 times. The first culture was washed with PBS 2 times, and digested with trypsin. Fresh culture medium was added evenly, cells were adjusted to a appropriate concentration and transferred into a new culture flask. Cell in an exponential phase were chosen for the tests.
(§6) MTT Assay for Cell Viability and IC50 Determination:
(§7) Experimental Principle: Living cells mitochondria in the dehydrogenase can reduce yellow MTT to water-insoluble blue-violet product MT (MTT formazan), deposited in the cells. The amount of production is proportional to the number of living cells. […] DMSO can dissolve blue violet crystals, and the color depth is proportional to the amount contained, so the absorbance measured by the microplate reader can reflect the cell viability.
(§8) Methods: The exponential phase cells were digested and counted and seeded in 96-well plates at a density of 2×10^4/mL at 100 μl per well. After 24 hours of incubation, the cells to be tested were treated with 0.1, 1, 10, 20, 40, 60, 80, 100 μmol/L of the compounds. Each experimental group had 5 wells in each concentration, and the culture medium containing 0.4% DMSO was used as control. After 48 hours, the supernatant was discarded, and 100 μl of MTT ((2-(4,5-dimethyl-2-thiazolyl)-3,5-diphenyl-2H-[…]) (1 mg/mL) was added to each well. After another 4 hours, the supernatant was discarded, and 100 μl of DMSO was added to each well. After mixing, the absorbance was measured at 570 nm using a microplate reader. An IC50 calculation software was used to determine the half inhibitory concentration (IC50).

[2] = tested on: human lung cancer cells (A-549); assay: MTT tumor cell proliferation inhibition test, A-549; type: cell-based; conditions: read-out: Half Inhibitory Concentration IC50, A-549
Procedure: as §1, §2, §3, §4, §5, §6, §7, §8

[3] = tested on: human brain astrocytoma cells (U-251); assay: MTT tumor cell proliferation inhibition test, U-251; type: cell-based; conditions: read-out: Half Inhibitory Concentration IC50, U-251
Procedure: as §1, §2, §3, §4, §5, §6, §7, §8

[4] = tested on: tumor cells (A-498, A-549, U-251); assay: MTT tumor cell proliferation inhibition test, summary in words over the cell lines tested; type: cell-based, human; conditions: summary of Table 1
Procedure: as §1, §2, §8
These compounds can be used for the study of antitumor agents.

[5] = A498, A-498 cells, MTT, 48 hours treatment
[6] = A549, A-549 cells, MTT, 48 hours treatment
[7] = U-251 cells, MTT, 48 hours treatment

`CC1=NN(c2ccc(C)cc2)C(=O)/C1=C\c1c(O)c(O)c(C(C)C)c2cc(C)c(-c3c(C)cc4c(C(C)C)c(O)c(O)c(C=O)c4c3O)c(O)c12` [B, (Z)-1,1′,6,6′,7,7′-hexahydroxy-5,5′-diisopropyl-3,3′-dimethyl-8′-((3-methyl-5-oxo-1-(p-tolyl)-1H-pyrazol-4(5H)-ylidene)methyl)-[2,2′-binaphthalene]-8-carbaldehyde] showed an IC50 [1, 5] of 37.6 ± 2.23 µM and an IC50 [2, 6] of 78.4 ± 2.65 µM.
Work on `COc1ccc(N2N=C(C)/C(=C/c3c(O)c(O)c(C(C)C)c4cc(C)c(-c5c(C)cc6c(C(C)C)c(O)c(O)c(C=O)c6c5O)c(O)c34)C2=O)cc1` [C] yielded an IC50 [1, 5] of 25.3 ± 0.95 µM, an IC50 [2, 6] of over 100 µM and an IC50 [3, 7] of over 100 µM.
In the case of `CC1=NN(c2ccccc2)C(=O)/C1=C\c1c(O)c(O)c(C(C)C)c2cc(C)c(-c3c(C)cc4c(C(C)C)c(O)c(O)c(C=O)c4c3O)c(O)c12` [Compound A, (Z)-1,1′,6,6′,7,7′-hexahydroxy-5,5′-diisopropyl-3,3′-dimethyl-8′-((3-methyl-5-oxo-1-phenyl-1H-pyrazol-4(5H)-ylidene)methyl)-[2,2′-binaphthalene]-8-carbaldehyde], the IC50 ([1]; A498, 48 h) is reported as 11.4 ± 1.03 µM, the IC50 ([2]; A549, 48 h) is reported as 10.5 ± 0.92 µM and the “antitumor activities (statement in words)” value (“antitumor activities” below) [4] is reported as “good antitumor activities in all three cell lines tested”. The IC50 ([3]; U-251, 48 h) was 10.4 ± 0.67 µM.
For `C=CC1=NN(c2ccc(C)cc2)C(=O)/C1=C\c1c(O)c(O)c(C(C)C)c2cc(C)c(-c3c(C)cc4c(C(C)C)c(O)c(O)c(C=O)c4c3O)c(O)c12` [Compound I, (Z)-1,1′,6,6′,7,7′-hexahydroxy-5,5′-diisopropyl-3,3′-dimethyl-8′-((5-oxo-1-(p-tolyl)-3-vinyl-1H-pyrazol-4(5H)-ylidene)methyl)-[2,2′-binaphthalene]-8-carbaldehyde], the IC50 [1, 5] was 11.7 ± 0.65 µM, the IC50 [2, 6] was 18.1 ± 0.72 µM and the “antitumor activities” value [4] was “good antitumor activities in different cell lines”. It also gave an IC50 [3, 7] of 20.7 ± 0.84 µM.
`CC1=NN(c2ccc(Cl)cc2)C(=O)/C1=C\c1c(O)c(O)c(C(C)C)c2cc(C)c(-c3c(C)cc4c(C(C)C)c(O)c(O)c(C=O)c4c3O)c(O)c12` [D, (Z)-8′-((1-(4-chlorophenyl)-3-methyl-5-oxo-1H-pyrazol-4(5H)-ylidene)methyl)-1,1′,6,6′,7,7′-hexahydroxy-5,5′-diisopropyl-3,3′-dimethyl-[2,2′-binaphthalene]-8-carbaldehyde] was tested, and the IC50 [1, 5] was 24.3 ± 0.91 µM, the IC50 [2, 6] was 36.9 ± 0.83 µM and the IC50 [3, 7] was over 100 µM.
In the case of `COC1=NN(c2ccccc2)C(=O)/C1=C\c1c(O)c(O)c(C(C)C)c2cc(C)c(-c3c(C)cc4c(C(C)C)c(O)c(O)c(C=O)c4c3O)c(O)c12` [E, (Z)-1,1′,6,6′,7,7′-hexahydroxy-5,5′-diisopropyl-8′-((3-methoxy-5-oxo-1-phenyl-1H-pyrazol-4(5H)-ylidene)methyl)-3,3′-dimethyl-[2,2′-binaphthalene]-8-carbaldehyde], the IC50 [1, 5] is reported as 17.8 ± 0.95 µM, the IC50 [2, 6] is reported as 26.7 ± 1.12 µM and the “antitumor activities” value [4] is reported as “good antitumor activities in different cell lines”. The IC50 [3, 7] was 26.1 ± 1.8 µM.
With `COC1=NN(c2ccc(OC)cc2)C(=O)/C1=C\c1c(O)c(O)c(C(C)C)c2cc(C)c(-c3c(C)cc4c(C(C)C)c(O)c(O)c(C=O)c4c3O)c(O)c12` [F] the IC50 [1, 5] was over 100 µM, the IC50 [2, 6] was 65.9 ± 2.84 µM and the IC50 [3, 7] was 58.2 ± 2.1 µM.
With `COC1=NN(c2ccc(Cl)cc2)C(=O)/C1=C\c1c(O)c(O)c(C(C)C)c2cc(C)c(-c3c(C)cc4c(C(C)C)c(O)c(O)c(C=O)c4c3O)c(O)c12` [G, (Z)-8′-((1-(4-chlorophenyl)-3-methoxy-5-oxo-1H-pyrazol-4(5H)-ylidene)methyl)-1,1′,6,6′,7,7′-hexahydroxy-5,5′-diisopropyl-3,3′-dimethyl-[2,2′-binaphthalene]-8-carbaldehyde] the IC50 [1, 5] was 26.5 ± 1.02 µM, the IC50 [2, 6] was 43.4 ± 1.21 µM and the “antitumor activities” value [4] was “good antitumor activities in different cell lines”. For the same compound, the IC50 [3, 7] was over 100 µM.
Work on `Cc1cc2c(C(C)C)c(O)c(O)c(C=O)c2c(O)c1-c1c(C)cc2c(C(C)C)c(O)c(O)c(C=O)c2c1O` [Gossypol] yielded an IC50 [1, 5] of 11.3 ± 0.28 µM, an IC50 [2, 6] of 14.9 ± 0.64 µM and an IC50 [3, 7] of 20.2 ± 1.3 µM.
With `C=CC1=NN(c2ccccc2)C(=O)/C1=C\c1c(O)c(O)c(C(C)C)c2cc(C)c(-c3c(C)cc4c(C(C)C)c(O)c(O)c(C=O)c4c3O)c(O)c12` [H, (Z)-1,1′,6,6′,7,7′-hexahydroxy-5,5′-diisopropyl-3,3′-dimethyl-8′-((5-oxo-1-phenyl-3-vinyl-1H-pyrazol-4(5H)-ylidene)methyl)-[2,2′-binaphthalene]-8-carbaldehyde] the IC50 [1, 5] was over 100 µM, the IC50 [2, 6] was over 100 µM and the IC50 [3, 7] was 78.7 ± 2.02 µM.
In the case of `C=CC1=NN(c2ccc(Cl)cc2)C(=O)/C1=C\c1c(O)c(O)c(C(C)C)c2cc(C)c(-c3c(C)cc4c(C(C)C)c(O)c(O)c(C=O)c4c3O)c(O)c12` [J, (Z)-8′-((1-(4-chlorophenyl)-5-oxo-3-vinyl-1H-pyrazol-4(5H)-ylidene)methyl)-1,1′,6,6′,7,7′-hexahydroxy-5,5′-diisopropyl-3,3′-dimethyl-[2,2′-binaphthalene]-8-carbaldehyde], the IC50 [1, 5] is reported as 13.8 ± 0.85 µM, the IC50 [2, 6] is reported as 12.7 ± 1.12 µM and the “antitumor activities” value [4] is reported as “good antitumor activities in different cell lines”. It also gave an IC50 [3, 7] of 26.2 ± 1.15 µM.
Compound `CC1=NN(c2c(C)cccc2Cl)C(=O)/C1=C\c1c(O)c(O)c(C(C)C)c2cc(C)c(-c3c(C)cc4c(C(C)C)c(O)c(O)c(C=O)c4c3O)c(O)c12` [K, (Z)-8′-((1-(2-chloro-6-methylphenyl)-3-methyl-5-oxo-1H-pyrazol-4(5H)-ylidene)methyl)-1,1′,6,6′,7,7′-hexahydroxy-5,5′-diisopropyl-3,3′-dimethyl-[2,2′-binaphthalene]-8-carbaldehyde] has an IC50 ([1]; A498, 48 h) of over 100 µM, an IC50 ([2]; A549, 48 h) of over 100 µM and an IC50 ([3]; U-251, 48 h) of 11.5 ± 1.32 µM.
`C=CC1=NN(c2c(C)cccc2Cl)C(=O)/C1=C\c1c(O)c(O)c(C(C)C)c2cc(C)c(-c3c(C)cc4c(C(C)C)c(O)c(O)c(C=O)c4c3O)c(O)c12` [L, (Z)-8′-((1-(2-chloro-6-methylphenyl)-5-oxo-3-vinyl-1H-pyrazol-4(5H)-ylidene)methyl)-1,1′,6,6′,7,7′-hexahydroxy-5,5′-diisopropyl-3,3′-dimethyl-[2,2′-binaphthalene]-8-carbaldehyde] gave an IC50 [1, 5] of over 100 µM, an IC50 [2, 6] of over 100 µM and an IC50 [3, 7] of over 100 µM.
